The results in this text go back to PubChem BioAssay (NCI).

Holding throughout (assay): NCI tumour cell line growth inhibition, 48 h
In assay [1] the test system is MDA-MB-231 breast.
For assay [2], the system named is BT-549 breast.
Assay [3] deals with T-47D breast.
Assay [4] relates to NCI/ADR-RES ovarian.
In assay [5] the test system is MCF7 breast.

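Cells were grown in 96-well plates and exposed to each compound for 48 hours at five concentrations; endpoints were interpolated linearly between bracketing concentrations, or set to the highest concentration if not reached. At the GI50, growth is halved. TGI is the concentration that stops growth completely.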

As to `O=c1oc2ccc(Cl)cc2c(=O)n1-c1ccc(I)cc1F`, the GI50 in assay [1] is 0.25 µM; in assay [2], 0.168 µM; in assay [3], 0.152 µM; in assay [4], 0.3 µM; in assay [5] it was 0.258 µM. In addition, the TGI is 3.57 µM in assay [1]; 1 µM in assay [2]; 1.11 µM in assay [3]; 2.87 µM in assay [4]; over 23.9 µM in assay [5].
Regarding `N#CC1C(N)=NNC12Nc1ccccc1N2` (stereo not given), the GI50 is 3.04 µM in assay [1], 6.55 µM in assay [2], 50.3 µM in assay [3] and 24.5 µM in assay [4]. The TGI in assay [1] is 40.6 µM; in assay [2], 31.6 µM; in assay [3], over 100 µM; in assay [4] it was 74.5 µM.
For the compound `Clc1ccc2nc(Oc3ccccc3)cnc2c1`, the GI50 in assay [1], in assay [2], in assay [3], in assay [4] and in assay [5] was over 100 µM each time. Further, the TGI in assay [1], in assay [2], in assay [3], in assay [4] and in assay [5] was over 100 µM throughout.
In the case of `Nc1nc(OCc2ccccc2)nc2[nH]ncc12`, the GI50 in assay [1] is 11.4 µM; in assay [2], 23.2 µM; in assay [3] it was 4.12 µM; in assay [4], 17.6 µM; in assay [5], 16.1 µM. Also, the TGI in assay [1] came out at 25.6 µM; in assay [2], 54.8 µM; in assay [3] it was 9.69 µM; in assay [4] it was 42.4 µM; in assay [5], 33.1 µM.
In the case of `Nc1nc(Nc2cccc(F)c2)nc2ccccc12`, the GI50 in assay [1] is 13.8 µM; in assay [2], 30.2 µM; in assay [3], 15.6 µM; in assay [4], 26.7 µM; in assay [5], 15.6 µM. The TGI is 34.2 µM in assay [1]; over 100 µM in assay [2]; 63 µM in assay [3]; 94.3 µM in assay [4]; over 100 µM in assay [5].
As to `Cc1ccc2c(c1)ncn2-c1ncnc2c1CC(C)c1ccccc1N2C` (stereo not given), the GI50 in assay [1] is 0.192 µM; in assay [2] it was 0.314 µM; in assay [3], 2.17 µM; in assay [4] it was 0.058 µM; in assay [5], 0.0368 µM. In addition, the TGI in assay [1] was 16.6 µM; in assay [2], 8.25 µM; in assay [3], 8.53 µM; in assay [4], 30.4 µM; in assay [5] it was 12.5 µM.
For `CC(=O)OC1C2(CC3N4C(=O)C5(CO)SSC4(CC31O)C(=O)N5C)OC(C)C(C)(C)C2=O` (stereo not given), the GI50 in assay [1] was under 0.01 µM; in assay [2], 0.146 µM; in assay [3], under 0.01 µM; in assay [4], under 0.042 µM; in assay [5], under 0.0139 µM. The TGI in assay [1] was 0.0558 µM; in assay [2], 0.728 µM; in assay [3] it was 0.0782 µM; in assay [4] it was 0.879 µM; in assay [5], 0.403 µM.
In the case of `COC(=O)[C@@H]1CCCN1C(=O)[C@@H]1CCCN1C(=O)[C@@H](Cc1c[nH]c2ccccc12)NC(=S)Nc1cc(C(F)(F)F)cc(C(F)(F)F)c1`, the GI50 is 3.01 µM in assay [1]; 4.75 µM in assay [2]; 2.91 µM in assay [3]; over 100 µM in assay [4]; 2.61 µM in assay [5]. Also, the TGI is 10.8 µM in assay [1]; 28.6 µM in assay [2]; 9.5 µM in assay [3]; over 100 µM in assay [4]; over 100 µM in assay [5].
As for `Cn1cc(-c2ccc3c(c2)CCN3C(=O)Cc2cccc(C(F)(F)F)c2)c2c(N)ncnc21`, the GI50 in assay [1] is 4.69 µM; in assay [2], 1.82 µM; in assay [3] it was 3.32 µM; in assay [4], 4.64 µM; in assay [5] it was 4.5 µM. Moreover, the TGI in assay [1] was 21.9 µM; in assay [2], 12.4 µM; in assay [3], 20.2 µM; in assay [4], 38.8 µM; in assay [5], 18.4 µM.
For the compound `COc1ccc(/C=C2\CCCC3=C2NC(C)=NC3c2ccc(OC)c(OC)c2)cc1OC` (stereo not given), the GI50 in assay [1] was 12.9 µM; in assay [2] it was 23.7 µM; in assay [3] it was 14.7 µM; in assay [4], 15.2 µM; in assay [5], 2.44 µM. For the same compound, the TGI in assay [1] was 75.3 µM; in assay [2] it was over 100 µM; in assay [3], over 100 µM; in assay [4] it was over 100 µM; in assay [5] it was over 100 µM.
As for `S=c1ssc(Sc2ccccn2)c1Cl`, the GI50 was 12 µM in assay [1], 17 µM in assay [3] and 13.9 µM in assay [4]. Further, the TGI in assay [1] is 24.4 µM; in assay [3] it was 34.6 µM; in assay [4], 26.8 µM.
Regarding `COc1cc(/C=C(/c2ccccc2)[N+](=O)[O-])c(OC)c2c1OCO2`, the GI50 in assay [1] was 1.7 µM; in assay [2] it was 1.66 µM; in assay [3], 1.21 µM; in assay [4], 2.43 µM. Also, the TGI in assay [1] amounted to 3.33 µM; in assay [2], 3.23 µM; in assay [3] it was 5.57 µM; in assay [4] it was 7.37 µM.
As for `CCCCC[C@H]1C/C=C2/C(=O)C(Cl)=C[C@@H]2C/C=C\CCCC(=O)O[C@@H](CCCCC)C/C=C2/C(=O)C(Cl)=C[C@@H]2C/C=C\CCCC(=O)O1`, the GI50 in assay [1] was 0.372 µM; in assay [2], 0.33 µM; in assay [3], 0.39 µM; in assay [4], 2.44 µM; in assay [5], 0.155 µM. Besides, the TGI in assay [1] was 0.995 µM; in assay [2], 0.836 µM; in assay [3], 1.18 µM; in assay [4], 9.46 µM; in assay [5] it was 1.93 µM.
Regarding `Cc1cn2c(/C=N/N/C(N)=N\N)c(-c3ccc(Cl)c([N+](=O)[O-])c3)nc2s1`, the GI50 in assay [1] is 0.791 µM; in assay [2], 1.12 µM; in assay [3], 0.878 µM; in assay [4], 15.7 µM; in assay [5] it was 1.56 µM. Besides, the TGI in assay [1] was 1.87 µM; in assay [2], 2.36 µM; in assay [3] it was 2.48 µM; in assay [4], 46.8 µM; in assay [5], over 50 µM.
Regarding `Fc1ccc(Nc2nc(NCCNc3ccnc4cc(Cl)ccc34)nc(N3CCOCC3)n2)cc1`, the GI50 in assay [1] was 3.05 µM; in assay [2] it was 8.67 µM; in assay [3], 10.9 µM; in assay [4] it was 9.36 µM; in assay [5], 3.43 µM. Further, the TGI in assay [1] worked out at 11.1 µM; in assay [2], 22 µM; in assay [3] it was 27.4 µM; in assay [4] it was 26.5 µM; in assay [5], 14.7 µM.
In the case of `C[C@H](CS(C)(=O)=O)Nc1ncc2cc(Oc3ccc(F)cc3F)c(=O)n(C)c2n1`, the GI50 in assay [1], in assay [2], in assay [3], in assay [4] and in assay [5] was over 25 µM in each case. Further, the TGI in assay [1], in assay [2], in assay [3], in assay [4] and in assay [5] was over 25 µM each time.
Consider `Cn1cc(-c2ccc(CNc3cc(-c4cnc5cc(OCCCN6CCCC6)ccn45)ncn3)cc2)cn1`, for which the GI50 is 1.91 µM in assay [1]; 12.6 µM in assay [2]; 18.7 µM in assay [3]; 5.11 µM in assay [4]; 2.45 µM in assay [5]. The TGI in assay [1] is 3.56 µM; in assay [2] it was 27.2 µM; in assay [3] it was 43.1 µM; in assay [4], over 100 µM; in assay [5], 10.4 µM.
`C/C1=C\CC[C@@](C)(O)[C@@H]2CC3[C@@H](OC(=O)C34CC4)[C@@H](O2)[C@H](C)CCC1` (stereo not given in full): the GI50 is 19.6 µM in assay [1], 47.2 µM in assay [3], 17 µM in assay [4] and 0.238 µM in assay [5]. In addition, the TGI in assay [1] was 43.5 µM; in assay [3] it was over 100 µM; in assay [4], 34 µM; in assay [5], 25.3 µM.
As for `COc1ccc2c(c1)nc(N)c1c3cccnc3cn21`, the GI50 in assay [1] is 0.556 µM; in assay [2], 0.447 µM; in assay [3], 6.75 µM; in assay [4], 0.0382 µM; in assay [5], 0.302 µM. Besides, the TGI came to 22.4 µM in assay [1]; 28.9 µM in assay [2]; 33.4 µM in assay [3]; 50.2 µM in assay [4]; 17.5 µM in assay [5].
In the case of `CC(C)OC(=O)c1ccc2[nH]c(O)c(C(=Nc3ccc(N(C)C(=O)CN4CCN(C)CC4)cc3)c3ccccc3)c2c1`, the GI50 in assay [1] was 0.16 µM; in assay [2], 1.28 µM; in assay [3] it was 1.2 µM; in assay [5], 0.485 µM. Moreover, the TGI in assay [1] was determined as 0.715 µM; in assay [2], 2.68 µM; in assay [3], 3.6 µM; in assay [5] it was 2.07 µM.
Consider `CC1=CC(=O)C(C(C)=Nc2ccccc2Cl)C(=O)O1` (stereo not given), for which the GI50 in assay [1], in assay [3], in assay [4] and in assay [5] was over 100 µM throughout. In addition, the TGI in assay [1], in assay [3], in assay [4] and in assay [5] was over 100 µM throughout.
For the compound `CCOC(=O)c1cnn(-c2ccnc3c(C(F)(F)F)cccc23)c1N`, the GI50 was over 100 µM in assay [1]; 70.7 µM in assay [2]; over 100 µM in assay [3]; over 100 µM in assay [4]; over 100 µM in assay [5]. The TGI in assay [1], in assay [2], in assay [3], in assay [4] and in assay [5] was over 100 µM in each case.
Take `Fc1ccc(Nc2nccc(-c3c(-c4ccc(C(F)(F)F)cc4)nn4ncccc34)n2)cc1F`: the GI50 in assay [1] was over 25 µM; in assay [2] it was over 25 µM; in assay [3] it was over 25 µM; in assay [4], over 25 µM; in assay [5] it was over 20.2 µM. Also, the TGI in assay [1], in assay [2], in assay [3], in assay [4] and in assay [5] was over 25 µM in each case.
As for `CCN1C(=O)N(CC)C2C1NN=c1s/c(=C3\C(=O)N(C)c4ccccc43)c(=O)n12` (stereo not given), the GI50 in assay [1] was 1.99 µM; in assay [2] it was 1.39 µM; in assay [3], 0.632 µM; in assay [4], 0.729 µM; in assay [5] it was 0.373 µM. For the same compound, the TGI was 34.6 µM in assay [1]; 37.9 µM in assay [2]; over 100 µM in assay [3]; 38.7 µM in assay [4]; 31.2 µM in assay [5].
`COc1ccccc1-c1c(C)nn2c(NCc3ccccn3)cc(C)nc12`: the GI50 in assay [1] was 34.7 µM; in assay [2], over 37.3 µM; in assay [3], 1.04 µM; in assay [4], 24.5 µM; in assay [5] it was 2.92 µM. Further, the TGI in assay [1], in assay [2], in assay [3], in assay [4] and in assay [5] was over 50 µM in each case.
Regarding `Cc1cc(N2CCCC2)nc(N(CCCNc2ccnc3cc(Cl)ccc23)Cc2ccc3c(c2)OCO3)n1`, the GI50 is 0.681 µM in assay [1], 1.42 µM in assay [3], 1.43 µM in assay [4] and 1.17 µM in assay [5]. Besides, the TGI in assay [1] amounted to 3.42 µM; in assay [3] it was 4.66 µM; in assay [4] it was 3.92 µM; in assay [5], 4.98 µM.
In the case of `CS(=O)(=O)Nc1cc(-c2ccc3ncnc(Nc4ccc5c(cnn5Cc5ccc(F)cc5)c4)c3c2)cnc1Cl`, the GI50 in assay [2] is 0.957 µM; in assay [3], 0.256 µM; in assay [4], 17 µM; in assay [5], 0.404 µM. Moreover, the TGI in assay [2] was 6.47 µM; in assay [3], 2.23 µM; in assay [4], over 100 µM; in assay [5], 10.2 µM.
Consider `COc1cnc2c(c1)C(=O)c1c-2n(CCCN2CCCC2)c(=O)c2cc(Cl)ccc12`, for which the GI50 was 6.15 µM in assay [1], 3.8 µM in assay [2], 1.21 µM in assay [3] and 0.222 µM in assay [4]. Also, the TGI in assay [1] worked out at 15.2 µM; in assay [2], 12.9 µM; in assay [3], 18.9 µM; in assay [4], 8.86 µM.
